Numbers after ± are expanded uncertainties.
Assay: xn = mol fraction of the nth substance listed
Conditions: 101 kPa, Liquid; for mass density: Vibrating tube method

Work on `NCCO.O=CO` [2-hydroxyethylammonium formate] + CO yielded a speed of sound (295.65 K, x2 = 0.5) of 1556 ± 8.3 m/s, a speed of sound (295.65 K, x2 = 0.598) of 1498.2 ± 7.9 m/s and a speed of sound (295.65 K, x2 = 0.701) of 1428.8 ± 7.5 m/s. It also gave a speed of sound (295.65 K, x2 = 0.799) of 1345.1 ± 7.1 m/s, a speed of sound (295.65 K, x2 = 0.9) of 1242.7 ± 6.7 m/s and a speed of sound (295.65 K, x2 = 0.951) of 1180 ± 6.4 m/s. The mass density (298.15 K, x2 = 0) was 1176.49 ± 31 kg/m3, the mass density (298.15 K, x2 = 0.055) was 1169.43 ± 31 kg/m3 and the mass density (298.15 K, x2 = 0.098) was 1162.94 ± 31 kg/m3. It also gave a mass density (298.15 K, x2 = 0.193) of 1146.28 ± 30 kg/m3, a mass density (298.15 K, x2 = 0.296) of 1125.68 ± 30 kg/m3 and a mass density (298.15 K, x2 = 0.399) of 1101.26 ± 30 kg/m3. For the same molecule, the mass density (298.15 K, x2 = 0.5) was 1072.54 ± 30 kg/m3, the mass density (298.15 K, x2 = 0.598) was 1039.27 ± 30 kg/m3 and the mass density (298.15 K, x2 = 0.701) was 997.697 ± 30 kg/m3. It also gave a mass density (298.15 K, x2 = 0.799) of 945.97 ± 30 kg/m3, a mass density (298.15 K, x2 = 0.9) of 878.505 ± 30 kg/m3 and a mass density (298.15 K, x2 = 0.951) of 835.555 ± 30 kg/m3. The speed of sound (298.15 K, x2 = 0) was 1709 ± 9.8 m/s, the speed of sound (298.15 K, x2 = 0.055) was 1723.6 ± 9.7 m/s and the speed of sound (298.15 K, x2 = 0.098) was 1712.1 ± 9.6 m/s. For the same molecule, the speed of sound (298.15 K, x2 = 0.193) was 1681.7 ± 9.3 m/s, the speed of sound (298.15 K, x2 = 0.296) was 1644.5 ± 9 m/s and the speed of sound (298.15 K, x2 = 0.399) was 1600.9 ± 8.6 m/s. The speed of sound (298.15 K, x2 = 0.5) was 1550.2 ± 8.3 m/s, the speed of sound (298.15 K, x2 = 0.598) was 1492.1 ± 7.9 m/s and the speed of sound (298.15 K, x2 = 0.701) was 1422.3 ± 7.5 m/s. For the same molecule, the speed of sound (298.15 K, x2 = 0.799) was 1338.3 ± 7.1 m/s, the speed of sound (298.15 K, x2 = 0.9) was 1235.3 ± 6.6 m/s and the speed of sound (298.15 K, x2 = 0.951) was 1172.1 ± 6.3 m/s. For the same molecule, the mass density (300.65 K, x2 = 0) was 1174.71 ± 31 kg/m3, the mass density (300.65 K, x2 = 0.055) was 1167.77 ± 31 kg/m3 and the mass density (300.65 K, x2 = 0.098) was 1161.28 ± 31 kg/m3. It also gave a mass density (300.65 K, x2 = 0.193) of 1144.6 ± 30 kg/m3, a mass density (300.65 K, x2 = 0.296) of 1123.97 ± 30 kg/m3 and a mass density (300.65 K, x2 = 0.399) of 1099.51 ± 30 kg/m3. The mass density (300.65 K, x2 = 0.5) was 1070.75 ± 30 kg/m3, the mass density (300.65 K, x2 = 0.598) was 1037.43 ± 30 kg/m3 and the mass density (300.65 K, x2 = 0.701) was 995.792 ± 30 kg/m3. For the same molecule, the mass density (300.65 K, x2 = 0.799) was 943.973 ± 30 kg/m3, the mass density (300.65 K, x2 = 0.9) was 876.371 ± 30 kg/m3 and the mass density (300.65 K, x2 = 0.951) was 833.316 ± 30 kg/m3. The speed of sound (300.65 K, x2 = 0) was 1702.9 ± 9.8 m/s, the speed of sound (300.65 K, x2 = 0.055) was 1718.4 ± 9.7 m/s and the speed of sound (300.65 K, x2 = 0.098) was 1706.9 ± 9.6 m/s. For the same molecule, the speed of sound (300.65 K, x2 = 0.193) was 1676.4 ± 9.3 m/s, the speed of sound (300.65 K, x2 = 0.296) was 1639 ± 8.9 m/s and the speed of sound (300.65 K, x2 = 0.399) was 1595.3 ± 8.6 m/s. It also gave a speed of sound (300.65 K, x2 = 0.5) of 1544.4 ± 8.3 m/s, a speed of sound (300.65 K, x2 = 0.598) of 1486.1 ± 7.9 m/s and a speed of sound (300.65 K, x2 = 0.701) of 1415.9 ± 7.5 m/s. It also gave a speed of sound (300.65 K, x2 = 0.799) of 1331.5 ± 7.1 m/s, a speed of sound (300.65 K, x2 = 0.9) of 1227.9 ± 6.6 m/s and a speed of sound (300.65 K, x2 = 0.951) of 1164.4 ± 6.3 m/s. The mass density (303.15 K, x2 = 0) was 1172.94 ± 31 kg/m3, the mass density (303.15 K, x2 = 0.055) was 1166.12 ± 31 kg/m3 and the mass density (303.15 K, x2 = 0.098) was 1159.62 ± 31 kg/m3. For the same molecule, the mass density (303.15 K, x2 = 0.193) was 1142.91 ± 30 kg/m3, the mass density (303.15 K, x2 = 0.296) was 1122.26 ± 30 kg/m3 and the mass density (303.15 K, x2 = 0.399) was 1097.77 ± 30 kg/m3. For the same molecule, the mass density (303.15 K, x2 = 0.5) was 1068.96 ± 30 kg/m3, the mass density (303.15 K, x2 = 0.598) was 1035.59 ± 30 kg/m3 and the mass density (303.15 K, x2 = 0.701) was 993.884 ± 30 kg/m3. For the same molecule, the mass density (303.15 K, x2 = 0.799) was 941.97 ± 30 kg/m3, the mass density (303.15 K, x2 = 0.9) was 874.236 ± 30 kg/m3 and the mass density (303.15 K, x2 = 0.951) was 831.073 ± 30 kg/m3. The speed of sound (303.15 K, x2 = 0) was 1696.8 ± 9.8 m/s, the speed of sound (303.15 K, x2 = 0.055) was 1713.2 ± 9.7 m/s and the speed of sound (303.15 K, x2 = 0.098) was 1701.7 ± 9.6 m/s. The speed of sound (303.15 K, x2 = 0.193) was 1671.1 ± 9.3 m/s, the speed of sound (303.15 K, x2 = 0.296) was 1633.6 ± 8.9 m/s and the speed of sound (303.15 K, x2 = 0.399) was 1589.7 ± 8.6 m/s. The speed of sound (303.15 K, x2 = 0.5) was 1538.6 ± 8.2 m/s, the speed of sound (303.15 K, x2 = 0.598) was 1480 ± 7.9 m/s and the speed of sound (303.15 K, x2 = 0.701) was 1409.5 ± 7.5 m/s. It also gave a speed of sound (303.15 K, x2 = 0.799) of 1324.7 ± 7 m/s, a speed of sound (303.15 K, x2 = 0.9) of 1220.6 ± 6.6 m/s and a speed of sound (303.15 K, x2 = 0.951) of 1156.6 ± 6.3 m/s. For the same molecule, the mass density (305.65 K, x2 = 0) was 1171.16 ± 31 kg/m3, the mass density (305.65 K, x2 = 0.055) was 1164.47 ± 31 kg/m3 and the mass density (305.65 K, x2 = 0.098) was 1157.95 ± 30 kg/m3. The mass density (305.65 K, x2 = 0.193) was 1141.23 ± 30 kg/m3, the mass density (305.65 K, x2 = 0.296) was 1120.55 ± 30 kg/m3 and the mass density (305.65 K, x2 = 0.399) was 1096.02 ± 30 kg/m3. For the same molecule, the mass density (305.65 K, x2 = 0.5) was 1067.17 ± 30 kg/m3, the mass density (305.65 K, x2 = 0.598) was 1033.75 ± 30 kg/m3 and the mass density (305.65 K, x2 = 0.701) was 991.972 ± 30 kg/m3. The mass density (305.65 K, x2 = 0.799) was 939.967 ± 30 kg/m3, the mass density (305.65 K, x2 = 0.9) was 872.095 ± 30 kg/m3 and the mass density (305.65 K, x2 = 0.951) was 828.823 ± 30 kg/m3.

Source: the NIST ThermoML archive (doi:10.1016/j.jct.2007.05.011)
